In patent US20030105144A1, “Stabilized oral pharmaceutical composition” (priority 2001, published 2003):

Assay: Solubility of celecoxib in PEG-400/water
Type: physicochemical
Settings: 2:1 mixture of PEG-400 and water
Protocol: Water-miscible, nonvolatile liquids such as polyethylene glycols have been successfully used in encapsulated solution formulations. Moreover, polyethylene glycols are also good solvents for drugs of low water solubility because they are known to improve aqueous drug solubility. For example, celecoxib, which has very low solubility in water, is highly soluble (>300 mg/g) in a 2:1 mixture of PEG-400 and water.

With Cc1ccc(-c2cc(C(F)(F)F)nn2-c2ccc(S(N)(=O)=O)cc2)cc1 [celecoxib, 4-[5-(4-methylphenyl)-3-(trifluoromethyl)-1H-pyrazol-1-yl]benzenesulfonamide] as the compound, how does the solubility read?
Its solubility is over 300 mg/g.
